Earlier results on two molecules are cited in PMC13575890, “Investigating substituted phenylacetamide ligands in the D4R extended binding pocket” (Bioorganic & medicinal chemistry letters, 2026).

Data set [1] has as its target T1, human D3R (Homo sapiens, UniProt P35462).
T1 construct: expressed in transfected cells
Set-up: method as in PMID 30883109. The note with it: membranes from HEK 293 cells stably expressing hD3R; previously reported compounds; read-out: Ki (nM) ± SEM [3H]N-methylspiperone D3R.

In data set [2] the target is T2, human D4R (Homo sapiens, UniProt P21917).
T2 construct: expressed in transfected cells
T2 sequence (P21917 1-419): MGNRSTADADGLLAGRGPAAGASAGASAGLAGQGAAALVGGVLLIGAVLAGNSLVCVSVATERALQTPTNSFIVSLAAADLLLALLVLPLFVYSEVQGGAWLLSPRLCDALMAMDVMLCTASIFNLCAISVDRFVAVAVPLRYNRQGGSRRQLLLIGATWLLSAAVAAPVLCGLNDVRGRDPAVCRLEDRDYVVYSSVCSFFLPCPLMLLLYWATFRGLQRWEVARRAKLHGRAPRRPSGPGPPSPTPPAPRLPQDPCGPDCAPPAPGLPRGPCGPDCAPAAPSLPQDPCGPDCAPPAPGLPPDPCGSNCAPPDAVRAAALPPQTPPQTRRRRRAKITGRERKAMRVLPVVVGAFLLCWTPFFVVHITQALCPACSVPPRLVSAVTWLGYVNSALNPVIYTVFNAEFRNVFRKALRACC
Set-up: method as in PMID 30883109. Particulars: membranes from HEK 293 cells stably expressing hD4R; previously reported compounds; read-out: Ki (nM) ± SEM [3H]N-methylspiperone D4R.

Structures are written as SMILES. Bounds are passed on as bounds.

T1 sequence (P35462 whole entry): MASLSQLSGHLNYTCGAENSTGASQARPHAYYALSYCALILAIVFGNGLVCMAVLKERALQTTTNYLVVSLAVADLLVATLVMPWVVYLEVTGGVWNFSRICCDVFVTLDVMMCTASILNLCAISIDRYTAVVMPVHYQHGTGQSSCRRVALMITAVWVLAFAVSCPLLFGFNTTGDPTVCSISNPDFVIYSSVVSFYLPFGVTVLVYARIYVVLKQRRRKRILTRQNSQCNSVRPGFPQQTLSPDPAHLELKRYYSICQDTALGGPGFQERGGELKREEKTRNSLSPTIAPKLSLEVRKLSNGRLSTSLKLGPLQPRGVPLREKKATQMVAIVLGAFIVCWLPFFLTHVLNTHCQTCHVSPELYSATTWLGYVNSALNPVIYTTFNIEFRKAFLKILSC

Regarding `Cc1cccc(NC(=O)CN2CCN(c3ccccn3)CC2)c1` [Compound 2], the values for the Ki in data set [1] and in data set [2] were above 50000 nM and 75.1 ± 0.7 nM, respectively.

As for `CCc1cccc(NC(=O)CN2CCN(c3ccccn3)CC2)c1` [Compound 3], the inhibition constant Ki – broadly, the equilibrium dissociation constant of an inhibitor or competing ligand from its target – in data set [2] was 66.6 ± 1.8 nM.
